Test results taken from the supplement of paper PMC5908809.

Columns and labels:
Experiment in all cases: relative IC50 (inflection point of fitted viability curve, relative to fitted max inhibition); higher = less sensitive
Conditions in all cases: 72 h
[1] = test system: DERL-7 (IL-2 2.5 ng/mL)
Method: (§1)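 Drug sensitivity and resistance testing: 5 concentrations over a 10,000-fold range, 72 h at 37 °C, viability by CellTiter-Glo normalised to DMSO and benzethonium chloride controls. IC50 is the inflection point of a logistic fit (min fixed at 0, max fitted), so it is relative to the fitted maximal inhibition. Kept only where fitted max inhibition is at least 50%.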

[2] = test system: IMC-1 (IL-2 20 ng/mL)
Method: as §1

[3] = test system: KAI3 (IL-2 2.5 ng/mL)
Method: as §1

[4] = test system: KHYG-1 (IL-2 2.5 ng/mL)
Method: as §1

[5] = test system: NK-92 (IL-2 2.5 ng/mL)
Method: as §1

[6] = test system: NK-YS (IL-2 2.5 ng/mL)
Method: as §1

[7] = test system: NKL (IL-2 2.5 ng/mL)
Method: as §1

[8] = test system: SNK-6 (IL-2 2.5 ng/mL)
Method: as §1

[9] = test system: YT (IL-2 2.5 ng/mL)
Method: as §1

[10] = test system: normal primary NK cells, pool 2 (3 donors) (IL-2 2.5 ng/mL)
Method: as §1

[11] = test system: normal primary NK cells, pool 3 (3 donors) (IL-2 2.5 ng/mL)
Method: as §1

[12] = test system: normal primary NK cells, pool 1 (3 donors), resting (IL-2 0 ng/mL)
Method: as §1

Structure (SMILES)	relative IC50 [1] [µM]	relative IC50 [2] [µM]	relative IC50 [3] [µM]	relative IC50 [4] [µM]	relative IC50 [5] [µM]	relative IC50 [6] [µM]	relative IC50 [7] [µM]	relative IC50 [8] [µM]	also measured
NC(=O)c1cccc2cn(-c3ccc([C@@H]4CCCNC4)cc3)nc12 [Niraparib]	2.17	1.8	1.58	2.23	1.92	1.49	0.219	3.14	–
O=C(c1cc(Cc2n[nH]c(=O)c3ccccc23)ccc1F)N1CCN(C(=O)C2CC2)CC1 [Olaparib]	–	1.61	1.26	2.02	1.56	1.62	0.237	1.67	–
COc1ccccc1S(=O)(=O)Nc1ccc2c(c1)CN(C)C(=O)N2 [PFI-1]	1.08	2.97	–	1.64	–	1.31	1.08	–	relative IC50 [9]: 2.31 µM; relative IC50 [10]: 1.78 µM
CCn1nnc2c(N3CCOCC3)nc(-c3ccc(NC(=O)Nc4ccc(C(=O)N5CCN(C)CC5)cc4)cc3)nc21 [PKI-402]	0.0891	–	0.0909	0.316	0.428	0.154	0.0971	0.21	relative IC50 [9]: 0.208 µM
COc1ccc(COc2cc3oc(=O)c4cc(C(C)O)ccc4c3cc2OC)cc1 (centres undefined) [Palomid-529]	–	–	–	1.96	1.28	–	–	–	–
C/C(=C\c1csc(C)n1)[C@@H]1C[C@@H]2O[C@]2(C)CCC[C@H](C)[C@H](O)[C@@H](C)C(=O)C(C)(C)[C@@H](O)CC(=O)O1 [Patupilone]	0.00274	0.00336	0.00677	0.0152	0.0068	0.0117	0.0124	0.00261	relative IC50 [9]: 0.00842 µM
O=C(CCBr)N1CCN(C(=O)CCBr)CC1 [Pipobroman]	–	–	–	–	–	–	–	> 10	–
c1cc(CN2CCCNCCNCCCNCC2)ccc1CN1CCCNCCNCCCNCC1 [Plerixafor]	–	–	–	–	–	–	–	–	relative IC50 [10]: > 10 µM; relative IC50 [11]: > 10 µM
Nc1cccc2c1C(=O)N(C1CCC(=O)NC1=O)C2=O (centres undefined) [Pomalidomide]	–	> 10	> 10	> 10	> 10	> 10	–	–	relative IC50 [9]: > 10 µM; relative IC50 [12]: > 10 µM
C[C@]12C=CC(=O)C=C1CC[C@@H]1[C@@H]2C(=O)C[C@@]2(C)[C@H]1CC[C@]2(O)C(=O)CO [Prednisone]	–	–	–	–	–	–	–	–	relative IC50 [10]: > 10 µM
CCNC(=O)Nc1ccc(-c2nc3c(c(N4CCOC[C@@H]4C)n2)CCN(C2COC2)C3)cc1 [RG-7603]	0.156	> 2.5	–	–	–	–	0.185	–	–
Nc1cc(F)ccc1NC(=O)/C=C/c1cnn(C/C=C/c2ccccc2)c1 [RGFP966]	1.53	–	1.94	–	1.68	–	1.35	1.46	–
CS(=O)(=O)c1ccc(C2=C(c3ccccc3)C(=O)OC2)cc1 [Rofecoxib]	–	–	–	–	–	–	–	–	relative IC50 [12]: > 10 µM; relative IC50 [11]: > 10 µM
CNCc1ccc(-c2[nH]c3cc(F)cc4c3c2CCNC4=O)cc1 [Rucaparib]	–	–	–	–	–	2	0.438	–	–
CC(C)N(CCCNC(=O)Nc1ccc(C(C)(C)C)cc1)C[C@H]1O[C@@H](n2cc(Br)c3c(N)ncnc32)[C@H](O)[C@@H]1O [SGC0946]	–	–	2.54	–	–	–	–	–	relative IC50 [12]: 3.66 µM
Cn1cc(-c2ccc3nnc(Sc4ccc5ncccc5c4)n3n2)cn1 [SGX-523]	–	> 5	–	> 5	–	–	–	–	–

Structure (SMILES)	relative IC50 [1] [µM]	relative IC50 [2] [µM]	relative IC50 [3] [µM]	relative IC50 [4] [µM]	relative IC50 [5] [µM]	relative IC50 [6] [µM]	relative IC50 [7] [µM]	relative IC50 [8] [µM]	also measured
CN1CCN(CCOc2cc(OC3CCOCC3)c3c(Nc4c(Cl)ccc5c4OCO5)ncnc3c2)CC1 [Saracatinib]	1.59	3.2	2.11	3.14	1.59	2.26	–	–	relative IC50 [9]: 1.2 µM; relative IC50 [12]: 1.62 µM
CC[C@H](CO)Nc1nc(NCc2ccccc2)c2ncn(C(C)C)c2n1 [Seliciclib]	–	–	2.38	–	–	–	–	–	relative IC50 [9]: 1.85 µM
CO[C@H]1C[C@@H]2CC[C@@H](C)[C@@](O)(O2)C(=O)C(=O)N2CCCC[C@H]2C(=O)O[C@H]([C@H](C)C[C@@H]2CC[C@@H](O)[C@H](OC)C2)CC(=O)[C@H](C)/C=C(\C)[C@@H](O)[C@@H](OC)C(=O)[C@H](C)C[C@H](C)/C=C/C=C/C=C/1C [Sirolimus]	0.005	–	0.00241	0.00655	–	0.00101	0.0003	0.0008	–
Cc1c(C(=O)Nc2ccc(N3C[C@@H](C)O[C@@H](C)C3)nc2)cccc1-c1ccc(OC(F)(F)F)cc1 [Sonidegib]	–	2.25	–	–	1.15	–	–	–	–
Nc1nc(NC2CC2)cc(-c2cccc(Cl)c2Cl)n1 [TH588]	7.9	6.38	1.73	2.05	1.55	0.854	2.18	0.809	relative IC50 [9]: 2.12 µM
Clc1ccccc1C(c1ccccc1)(c1ccccc1)n1cccn1 [TRAM-34]	–	–	–	–	–	–	–	–	relative IC50 [12]: > 1 µM
C[C@@H]1CN(Cc2ccc(F)cc2)[C@@H](C)CN1C(=O)c1cc2c(C(=O)C(=O)N(C)C)cn(C)c2cc1Cl [Talmapimod]	–	–	–	> 10	–	–	–	> 10	–
COc1cc2c(N3CCN(C(=O)Nc4ccc(OC(C)C)cc4)CC3)ncnc2cc1OCCCN1CCCCC1 [Tandutinib]	–	–	–	–	–	–	–	–	relative IC50 [11]: > 1 µM
O[C@H]1CC[C@H](Nc2ncc3nc(Nc4c(F)cc(F)cc4F)n([C@H]4CCOC4)c3n2)CC1 [Tanzisertib]	–	–	–	–	–	–	–	> 10	–
Cn1nnc2c(C(N)=O)ncn2c1=O [Temozolomide]	–	15.8	–	–	–	–	25.7	1.61	relative IC50 [12]: > 100 µM
Cc1cc(Nc2cc(N3CCN(C)CC3)nc(Sc3ccc(NC(=O)C4CC4)cc3)n2)n[nH]1 [Tozasertib]	0.0463	0.283	0.349	0.193	0.636	0.051	–	0.0502	–
O=c1ncn2nc(Sc3ccc(F)cc3F)ccc2c1-c1c(Cl)cccc1Cl [VX 745]	–	–	0.779	–	–	–	0.719	–	–
CCc1c(C(=O)C(N)=O)c2c(OCC(=O)O)cccc2n1Cc1ccccc1 [Varespladib]	–	> 10	–	–	–	–	–	–	–
C[C@@H]1COC(Nc2ccc3ncnc(Nc4ccc(OCc5nccs5)c(Cl)c4)c3c2)=N1 [Varlitinib]	–	–	–	–	–	–	–	–	relative IC50 [12]: > 10 µM
CCC1=C[C@@H]2CN(C1)Cc1c([nH]c3ccccc13)[C@@](C(=O)OC)(c1cc3c(cc1OC)N(C)[C@H]1[C@@](O)(C(=O)OC)[C@H](OC(C)=O)[C@]4(CC)C=CCN5CC[C@]31[C@@H]54)C2 [Vinorelbine]	0.00507	0.00326	0.00728	0.00826	0.0232	0.00598	0.00389	0.00295	relative IC50 [9]: 0.00729 µM; relative IC50 [12]: 1.46 µM
CC[C@@H]1C(=O)N(C)c2cnc(Nc3ccc(C(=O)N[C@H]4CC[C@H](N5CCN(CC6CC6)CC5)CC4)cc3OC)nc2N1C(C)C [Volasertib]	0.0196	0.03	0.0265	0.0283	0.0126	0.0243	0.0362	0.00644	relative IC50 [9]: 0.029 µM
